The values that follow come from patent US20170045513A1, “METHODS OF DIAGNOSING CELIAC DISEASE USING IP-10” (ImmusanT, Inc., priority 2014, published 2017).

Holding throughout (type): cell-based, human
In assay [1] the test system is gluten-reactive T cells. Description: Overnight IFNγ ELISpot assay with fresh PBMC. The conditions noted are these: n = 5, blood after oral gluten challenge, individual peptides 5 μM (Peptide 2* of P14, Pepscan: 10 μg/mL (5.45 μM)). The procedure: HLA-DQ2.5-positive celiac disease subjects on gluten-free diet were used in this study. Blood was collected immediately before and 6 days after commencing 3-day oral gluten challenge. Whole blood or PBMCs were incubated with pools or single peptides derived from gluten or recall antigens. IFNγ and IP-10 levels were measured in plasma from the whole blood that was incubated in 96-well plates with peptides or peptide pools. Plasma cytokine/chemokine levels were measured by MAGPIX® multiplex bead assay (IFNγ and IP-10) or by ELISA (IFNγ and IP-10), and PBMC separated from the same blood sample were incubated in overnight IFNγ ELISpot assays.
Overnight IFNγ ELISpot assays (Human IFN-γ ELISpotPRO kit, transparent, ALP; Mabtech AB, #3420-2APT-10) were performed using PBMC freshly separated from heparinized blood diluted 1:1 in PBS with 2% fetal bovine serum (Stemcell Technologies #07905; Vancouver, BC, V5Z 1B3, Canada) overlaid on density gradient medium (Ficoll-Paque™ PLUS; GE Healthcare Lice Sciences #:17-1440-02) in SepMate™-50 tubes (Stemcell Technologies #15460). PBMC (8 million/mL) were resuspended in serum-free medium with gentamicin and phenol red (X-VIVO™15; Lonza, Walkersville Mass. 21793). PBMC (0.4 million/50 pt/well) and incubated with 50 μL 80% X-vivo15, 0.2% DMSO and 20% PBS in three triplicate wells (“medium only”), or with 50 μL PHA-L 20 μg/ml or peptide at 2× final concentration in 80% X-vivo15, 0.2% DMSO and 20% PBS. Peptide solutions to be added to individual ELISpot wells were prepared in 96-well U-bottom plates (60 pt/well) that were then sealed with adhesive ELISA plate cover slips before replacing the plastic lid and being frozen at −80° C. 96-well plates containing peptide solutions were thawed at room temperature for 10 min while being centrifuged at 300 g immediately prior to being added to ELISpot wells. Peptide pools and mitogen were assessed in triplicate wells, and individual peptides were assessed in duplicate wells. X-VIVO™15 (50 μL) was incubated with 80% X-vivo15, 0.2% DMSO and 20% PBS (50 μL) in triplicate wells (“no PBMC” control). A Zeiss automated ELISpot counter was used to determine spot forming units (SFU) per well (Zellnet Inc., Fort Lee, N J 07024). Laboratory staff were unaware of the arrangement of peptide solutions in ELISpot wells during assay setup and plate counting.

In assay [2] the test system is gluten-reactive T cells. Nature of the assay: 96-well plate whole blood cytokine release, IFNγ by MAGPIX multiplex bead assay. The conditions noted are these: n = 8, blood after oral gluten challenge, individual peptides 5 μM (Peptide 2* of P14, Pepscan: 10 μg/mL (5.45 μM)).
Assay [3] deals with gluten-reactive T cells. Nature of the assay: 96-well plate whole blood cytokine release, IP-10 by MAGPIX multiplex bead assay. The conditions noted are these: for Percent of maximal response to individual gluten peptides, IP-10: after oral gluten challenge; for IP-10 WB MAGPIX % max Mean: n = 10, blood after oral gluten challenge, individual peptides 5 μM (Peptide 2* of P14, Pepscan: 10 μg/mL (5.45 μM)).

The test system of assay [4] is gluten-reactive T cells. Description: Cytokine release assays taken together (IFNγ ELISpot, whole blood IFNγ and IP-10, in-tube IFNγ ELISA). The conditions noted are these: blood collected after oral gluten challenge. As to the method: Gluten peptide solutions for addition to whole blood were arranged according to standardized templates in sterile 96-well U-bottom plates (30 μL/well). Plates were sealed with adhesive ELISA plate cover slips before the plastic lid was replaced and being frozen at −80° C. Whole blood assay (WBA) “medium” (1% DMSO in 90% PBS and 9% normal saline), mitogen (PHA-L, Sigma-Aldrich #L2769; St Louis Mo.) 100 μg/ml in WBA medium, and CEF diluted to 10 μg/ml in PBS with a final concentration of 1% DMSO were frozen separately in sterile cryovials. 96-well plates and cryovials with frozen incubation solutions were shipped on dry ice to the clinical site where blood was collected and incubations performed. Solutions were thawed at room temperature for 10 min just before being added to whole blood. 96-well plates were thawed while being centrifuged at 300 g to avoid surface condensation. A multi-channel pipette was used to efficiently transfer 25 μL of peptide solutions from the original 96-well plate to corresponding wells in a fresh sterile 96-well U-bottom plate. Once incubation solutions had been added, 225 μL of whole blood was added to each well and the plate transferred to incubate for 24 h at 37° C. 5% CO2. […] Individual peptides were incubated at a final assay concentration of 51.1M. Final concentrations of individual peptides assessed in P3 was 0.05-50 μg/mL, and in P14 and P13 pools 0.025-25 μM. The P71 pool was tested at between 0.005-10 pg/mL, the highest tested concentration being the maximal possible not exceeding 0.1% DMSO. Peptide pools, mitogen, and medium only were assessed in triplicate wells, and on Day-6 individual peptides were assessed in duplicate wells. Incubations were terminated after 24 h, and 96-well plates centrifuged at 300 g for 10 min. A total of approximately 90 to 120 μL of plasma was removed from each well taking care to avoid red cell contamination, and transferred into corresponding wells of two further 96-well plates (one with 30 μL/well and the residual in the second plate). Plasmas were frozen at −80° C. and later shipped on dry ice to the central lab where IP-10 and IFNγ multiplex bead assays were performed according to manufacturer's instructions using 25 μL plasma per well (Milliplex® MAP Human Cytokine/Chemokine Magnetic Bead Panel #HCYTOMAG-60k-02; EMD Millipore Corp., Billerica, Mass. 01821) and analysed with the Luminex® MAGPIX® System xPONENT® software (Luminex Corporation, Austin Tex. 78727). Plasma cytokine levels for each assay condition were expressed as the mean analyte concentration of each of the three replicate incubations. Laboratory staff were unaware of the arrangement of peptide solutions incubated with during assay setup and plate counting.
Aliquots of PBS, P3 peptides diluted in PBS (final concentration in blood 3× 50 or CEF to a final concentration 1 μg/mL were prepared in sterile cryovials (0.11 mL/vial) and stored frozen (−80° C.) until immediately before use. P3, CEF and two PBS aliquots were drawn up in separate sterile 0.3 mL insulin syringes with attached 29G×½″ needle (Terumo, SS*30M2913; Elkton Md. 21921). P3, CEF and one PBS aliquot was injected through the stoppers of three separate QuantiFERON® NIL tubes already containing 1 mL blood, and one aliquot of PBS was injected into a QuantiFERON® MITOGEN tube already containing 1 mL blood. All four tubes containing blood and incubation solution were gently inverted ten-times and transferred to incubate at 37° C. 5% CO2. After for 24 h, tubes were centrifuged 300 g 10 min. Plasma was separated and equal volumes placed in two 1.5 mL cryovials. Frozen plasmas were transferred to the central lab where IFNγ levels were measured in triplicate 50 μL samples by ELISA (MABtech Human IFN-γ ELISA development kit HRP, 3420-1H-6; capture mAb 1-D1K). […]
For orientation: ELISA stands for enzyme-linked immunosorbent assay.

Non-standard residues stand in square brackets, D forms with d. pGlu = O=C1CC[C@@H](C(=O)O)N1

Regarding “(pE)QPFPQPEQPFPWQP-amide ([pGlu]QPFPQPEQPFPWQP-NH2; SMILES NC(=O)CC[C@H](NC(=O)[C@H](Cc1c[nH]c2ccccc12)NC(=O)[C@@H]1CCCN1C(=O)[C@H](Cc1ccccc1)NC(=O)[C@@H]1CCCN1C(=O)[C@H](CCC(N)=O)NC(=O)[C@H](CCC(=O)O)NC(=O)[C@@H]1CCCN1C(=O)[C@H](CCC(N)=O)NC(=O)[C@@H]1CCCN1C(=O)[C@H](Cc1ccccc1)NC(=O)[C@@H]1CCCN1C(=O)[C@H](CCC(N)=O)NC(=O)[C@@H]1CCC(=O)N1)C(=O)N1CCC[C@H]1C(N)=O) [Peptide 2, two preparations tested separately: CSBio (5 μM) and Pepscan re-synthesis (10 μg/mL)]”, the results for the “IFNγ ELISpot % max Mean” value in the assay with gluten-reactive T cells [1] and in the assay with gluten-reactive T cells [1] (listed as Peptide 2*) were 19 % max and 25 % max, respectively. For the same substance, the “IFNγ WB MAGPIX % max Mean” value was 23 % max with gluten-reactive T cells [2] and 27 % max in the assay with gluten-reactive T cells [2] (listed as Peptide 2*). For the same substance, the “Percent of maximal response to individual gluten peptides, IP-10” value with gluten-reactive T cells [3] (Subject 3, Max. 9492 pg/mL) is ≥ 100 % of max; with gluten-reactive T cells [3] (Subject 4, Max. 9463 pg/mL), ≥ 100 % of max. Besides, the entries for the “IP-10 WB MAGPIX % max Mean” value in the assay on gluten-reactive T cells [3] and in the assay on gluten-reactive T cells [3] (listed as Peptide 2*) were 43 % max and 49 % max, respectively. In the assay on gluten-reactive T cells [4], the “activity relative to Peptide 14 in the cytokine release assays” value was “approximately one-half to one-fifth as active as Peptide 14”.
